How the values were obtained:
[1] = test system: Panelists; experiment: Paired comparison taste test, Example 7, sucrose or fructose solutions; assay type: in vivo, Human
Protocol: (§1) Several types of sensory tests were used to determine the efficacy of 3-(4-amino-2,2-dioxide-1H-benzo[c][1,2,6]thiadiazin-5-yloxy)-2′,2′-dimethyl-N-propylpropanamide 3-(4-amino-2,2-dioxide-1H-benzo[c][1,2,6]thiadiazin-5-yloxy)-2′,2′-dimethyl-N-propylpropanamide in enhancing the sweetness of sucrose. Two types of tests were conducted: • 1) Sensory scaling tests were performed using a 15-point percent sucrose equivalence scale for sweetness in order to evaluate sweetness enhancement 3-(4-amino-2,2-dioxide-1H-benzo[c][1,2,6]thiadiazin-5-yloxy)-2′,2′-dimethyl-N-propylpropanamide 3-(4-amino-2,2-dioxide-1H-benzo[c][1,2,6]thiadiazin-5-yloxy)-2′,2′-dimethyl-N-propylpropanamide in sucrose or in fructose. • 2) Paired comparison tests (2-alternative forced choice difference tests) were used to determine sweetness equivalence for solutions of sucrose vs. 3-(4-amino-2,2-dioxide-1H-benzo[c][1,2,6]thiadiazin-5-yloxy)-2′,2′-dimethyl-N-propylpropanamide 3-(4-amino-2,2-dioxide-1H-benzo[c][1,2,6]thiadiazin-5-yloxy)-2′,2′-dimethyl-N-propylpropanamide or buffer vs. 3-(4-amino-2,2-dioxide-1H-benzo[c][1,2,6]thiadiazin-5-yloxy)-2′,2′-dimethyl-N-propylpropanamide 3-(4-amino-2,2-dioxide-1H-benzo[c][1,2,6]thiadiazin-5-yloxy)-2′,2′-dimethyl-N-propylpropanamide. Stimuli:
Panelists evaluated two solutions in a paired comparison taste test procedure. They were instructed to select the sweeter of the two samples. They were also asked to comment on how difficult it was to tell the difference in sweetness between both samples and if any off tastes were perceived.
Panelists evaluated two solutions in a paired comparison taste test procedure and were instructed to select the sweeter of the two samples.

[2] = test system: External panelists; experiment: Line scale (15-point sucrose equivalence) sensory test, Example 5, sucrose or LSB, pH 7.1; assay type: in vivo, Human
Protocol: as §1
Tests were performed with sucrose or fructose. The sweetener was evaluated with and/or without 3-(4-amino-2,2-dioxide-1H-benzo[c][1,2,6]thiadiazin-5-yloxy)-2′,2′-dimethyl-N-propylpropanamide 3-(4-amino-2,2-dioxide-1H-benzo[c][1,2,6]thiadiazin-5-yloxy)-2′,2′-dimethyl-N-propylpropanamide at the appropriate concentration(s).
3-(4-amino-2,2-dioxide-1H-benzo[c][1,2,6]thiadiazin-5-yloxy)-2′,2′-dimethyl-N-propylpropanamide was prepared as a concentrated stock solution in ethanol to ensure dissolution of the 3-(4-amino-2,2-dioxide-1H-benzo[c][1,2,6]thiadiazin-5-yloxy)-2′,2′-dimethyl-N-propylpropanamide. Therefore, all taste solutions contained ethanol in the final solution. Samples without 3-(4-amino-2,2-dioxide-1H-benzo[c][1,2,6]thiadiazin-5-yloxy)-2′,2′-dimethyl-N-propylpropanamide also contained an equivalent concentration of ethanol. For samples involving 3-(4-amino-2,2-dioxide-1H-benzo[c][1,2,6]thiadiazin-5-yloxy)-2′,2′-dimethyl-N-propylpropanamide at 5-10 ppm (up to 28 μM), the final concentration of ethanol was 0.2%; 30-40 μM, 0.4% ethanol; 50 μM, 0.5% ethanol; and 100 μM, 1% ethanol.
Taste samples were also prepared in low sodium phosphate buffer (pH 7.1; “LSB”) lacking sucrose to evaluate the taste of 3-(4-amino-2,2-dioxide-1H-benzo[c][1,2,6]thiadiazin-5-yloxy)-2′,2′-dimethyl-N-propylpropanamide alone. Low sodium phosphate buffer consists of 0.3 mM KCl, 0.5 mM Na2HPO4, and 0.175 mM KH2PO4.
In scaling test situations, the samples were rated on a 15-point scale for sweetness, ranging from 0=0% sucrose to 15=15% sucrose. To evaluate attributes other than sweetness, references are used for training and are prepared according to the table below. Note that each reference was given a score of 5 on the 15-point scale.
External panelists were used for the tests. The exact number of panelists is reported with test results. Subjects were instructed not to eat or drink anything (except water) for at least 1 hour prior to the test.
Panelists rinsed their mouths with water prior to starting any test. Samples were presented to panelists in a randomized, counterbalanced order. Panelists rinsed with water and had up to a 1 minute delay to clear the mouth of any tastes after each evaluation. Two replicates of each test were performed, unless otherwise noted.
In scaling tests, panelists rate samples monadically for the attributes listed above (see Stimuli). In paired comparison tests, panelists taste pairs of solutions and indicate which sample is perceived to be sweeter.
Attributes of interest are reported for each scaling taste test.
Panelists rinsed their mouths with water prior to starting any test. Samples were presented to panelists in a randomized, counterbalanced order. […]

CCCNC(=O)C(C)(C)COc1cccc2c1C(N)=NS(=O)(=O)N2 [3-(4-amino-2,2-dioxide-1H-benzo[c][1,2,6]thiadiazin-5-yloxy)-2′,2′-dimethyl-N-propylpropanamide]
Sample selected as more sweet by panelists, Total ([1]; 28 μM (9.9 ppm) compound chosen, vs 1% Sucrose, n = 32): 4 | Sweetness comparison (conclusion) ([1]; 28 μM compound vs 1% sucrose): 1% sucrose was significantly sweeter | Sample selected as sweeter by panelists, Test 1 ([1]; 6% Fructose + 25 μM (8.9 ppm) compound chosen, vs 6% Fructose, N = 25): 20 | Sample selected as more sweet by panelists, Test 1 ([1]; 6% Fructose + 25 μM (8.9 ppm) compound chosen, vs 7% Fructose, N = 25): 12 | Sweetness comparison (conclusion) ([1]; 6% fructose + 25 μM compound vs 6% fructose, p<0.05): significantly sweeter than 6% fructose | Sweetness comparison (conclusion) ([1]; 6% fructose + 25 μM compound vs 7% fructose): no significant difference in sweetness | off tastes ([2]; 25.0 μM (8.9 ppm) compound on its own): no significant off tastes | Average Sweetness ([2]; 25 μM (8.9 ppm) compound on its own, pH 7, n = 30): 0.6 | Sweetness vs sucrose solutions (conclusion) ([2]; 25.0 μM (8.9 ppm) compound on its own, p>0.10): not significantly different in sweetness than 0% sucrose | Average Bitterness ([2]; 25 μM compound on its own, n = 30): 0.2 | Average Sweetness ([2]; 50 μM (17.7 ppm) compound on its own in LSB, pH 7.1, n = 14): 1.3 | bitter off tastes ([2]; 50 μM compound in LSB, pH 7.1): no significant bitter off tastes | off tastes ([2]; 50 μM compound on its own in LSB): no significant off tastes | Average Bitterness ([2]; 1% Sucrose + 5 ppm (14.11 μM) compound, n = 30): 0.4 | Average Sweetness ([2]; 1% Sucrose + 5 ppm (14.11 μM) compound, pH 7.1, n = 30): 2.5 | Sweetness vs sucrose solutions (conclusion) ([2]; 1% sucrose + 5 ppm compound, p>0.10): not significantly different in sweetness than 2% sucrose | off tastes ([2]; 1-10 ppm compound in 6% sucrose, LSB, pH 7.1): no significant off tastes | Average Sweetness ([2]; 2% Sucrose + 25 μM (8.9 ppm) compound, pH 7.1, n = 28): 5.6 | Average Bitterness ([2]; 2% Sucrose + 25 μM compound, n = 28): 0.3 | Average Bitterness ([2]; 2% Sucrose + 5 ppm (14.11 μM) compound, n = 30): 0.2 | Average Sweetness ([2]; 2% Sucrose + 5 ppm (14.11 μM) compound, pH 7.1, n = 30): 4.6 | Sweetness vs sucrose solutions (conclusion) ([2]; 2% sucrose + 5 ppm compound): not significantly different in sweetness than 4% sucrose | Sweetness vs sucrose solutions (conclusion) ([2]; 2% sucrose + 8.9 ppm compound, p>0.10): not significantly different in sweetness than 6% sucrose | Average Sweetness ([2]; 4% Sucrose + 25 μM (8.9 ppm) compound, pH 7.1, n = 28): 8.3 | Average Bitterness ([2]; 4% Sucrose + 25 μM compound, n = 28): 0.3 | Average Bitterness ([2]; 4% Sucrose + 5 ppm (14.11 μM) compound, n = 30): 0.2 | Average Sweetness ([2]; 4% Sucrose + 5 ppm (14.11 μM) compound, pH 7.1, n = 30): 8.1 | Sweetness vs sucrose solutions (conclusion) ([2]; 4% sucrose + 5 ppm compound, p>0.10): not significantly different in sweetness than 8% sucrose | Sweetness vs sucrose solutions (conclusion) ([2]; 4% sucrose + 8.9 ppm compound, p>0.10): not significantly different in sweetness than 8% sucrose | off tastes ([2]; 5 ppm compound in 1-6% sucrose, LSB, pH 7.1): no significant off tastes | Average Sweetness ([2]; 6% Sucrose + 25 μM (8.9 ppm) compound, pH 7.1, n = 24): 10.6 | Sweetness vs sucrose solutions (conclusion) ([2]; 6% Sucrose + 25 μM compound, p>0.10): not significantly different in sweetness than 10% or 12% sucrose | Average Bitterness ([2]; 6% Sucrose + 25 μM compound, pH 7.1, n = 24): 0.1 | Average Sweetness ([2]; 6% Sucrose + 50 μM (17.7 ppm) compound, pH 7.1, n = 15): 9.9 | Sweetness vs sucrose solutions (conclusion) ([2]; 6% Sucrose + 50 μM compound, p>0.10): not significantly different in sweetness compared to 10% or 12% Sucrose | Average Bitterness ([2]; 6% Sucrose + 50 μM compound, pH 7.1, n = 15): 0.2 | Average Bitterness ([2]; 6% Sucrose + 1 ppm (2.82 μM) compound, n = 30): 0.7 | Average Sweetness ([2]; 6% Sucrose + 1 ppm (2.82 μM) compound, pH 7.1, n = 30): 7.5 | Average Bitterness ([2]; 6% Sucrose + 2 ppm (5.64 μM) compound, n = 30): 0.4 | Average Sweetness ([2]; 6% Sucrose + 2 ppm (5.64 μM) compound, pH 7.1, n = 30): 8.0 | Average Bitterness ([2]; 6% Sucrose + 4 ppm (11.29 μM) compound, n = 30): 0.4 | Average Sweetness ([2]; 6% Sucrose + 4 ppm (11.29 μM) compound, pH 7.1, n = 30): 10.1 | Average Bitterness ([2]; 6% Sucrose + 5 ppm (14.11 μM) compound, n = 30): 0.4 | Average Sweetness ([2]; 6% Sucrose + 5 ppm (14.11 μM) compound, pH 7.1, n = 30): 10.2 | Average Bitterness ([2]; 6% Sucrose + 7 ppm (19.75 μM) compound, n = 30): 0.3 | Average Sweetness ([2]; 6% Sucrose + 7 ppm (19.75 μM) compound, pH 7.1, n = 30): 10.3 | Sweetness vs sucrose solutions (conclusion) ([2]; 6% Sucrose + 7 ppm compound, p>0.10): not significantly different than 10% or 12% sucrose | Average Bitterness ([2]; 6% Sucrose + 10 ppm (28.22 μM) compound, n = 30): 0.6 | Average Sweetness ([2]; 6% Sucrose + 10 ppm (28.22 μM) compound, pH 7.1, n = 30): 10.9 | Sweetness vs sucrose solutions (conclusion) ([2]; 6% Sucrose + 10 ppm compound, p>0.10): not significantly different than 10% or 12% sucrose | off tastes ([2]; 6% sucrose + 25 μM compound): no significant off tastes | Sweetness vs sucrose solutions (conclusion) ([2]; 6% sucrose + 4 ppm compound, p>0.10): not significantly different than 10% sucrose | off tastes ([2]; 8.9 ppm compound in 2-4% sucrose, LSB, pH 7.1): no significant off tastes
